Experiments:
[1] = Inhibition of BET in human THP-1 cells assessed as suppression of LPS-induced IL-6 release measured after 16 hrs by chemiluminescence ELISA; format: cell-based; conditions: THP-1, 16 h
[2] = molecular target: Bromodomain-containing protein 4 (Homo sapiens, UniProt O60885)
Description: Inhibition of His/FLAG-tagged BRD4 BD1 (unknown origin) using histone H4-TetraAcetylated-biotin peptide as substrate incubated for 20 mins by AlphaLISA assay

[3] = Intrinsic clearance in dog liver microsomes
[4] = Protein binding in dog plasma
[5] = Protein binding in mouse plasma
[6] = Protein binding in rat plasma; format: ADME, cell-free; conditions: read-out: PPB (converted)
[7] = Intrinsic clearance in rat liver microsomes
[8] = Intrinsic clearance in mouse liver microsomes
[9] = Protein binding in human plasma; format: ADME, cell-free; conditions: read-out: PPB (converted)
[10] = Intrinsic clearance in human liver microsomes

Q: Which results are given for `Cc1nnc2n1-c1ccc(-c3ccc(=O)n(C)c3)cc1N(c1ccc(Cl)cc1)C[C@H]2C`?
A: EC50 [1]: 36 nM; IC50 [2]: 25 nM

Q: With `Cc1nnc2n1-c1ccccc1NCC2` as the compound, how does the IC50 [2] read?
A: Its IC50 is 62000 nM.

Q: With `CCNC(=O)CC1CN(c2ccc(Cl)cc2)c2ccccc2-n2c(C)nnc21` (stereo not given) as the compound, how does the microsomal CLint [3] read?
A: Its microsomal CLint is 33 µL/min/mg.

Q: And the fraction unbound [4]?
A: Its fraction unbound is 0.09.

Q: What about the fraction unbound [5] of the same compound?
A: Its fraction unbound is 0.08.

Q: And the fraction unbound [6]?
A: Its fraction unbound is 0.13.

Q: What about the microsomal CLint [7] of the same compound?
A: The microsomal CLint was 74 µL/min/mg.

Q: What about the EC50 [1] of the same compound?
A: The EC50 was 1800 nM.

Q: What about the IC50 [2] of the same compound?
A: The IC50 was 2100 nM.

Q: What about the microsomal CLint [8] of the same compound?
A: Its microsomal CLint is 52 µL/min/mg.

Q: What about the fraction unbound [9] of the same compound?
A: Its fraction unbound is 0.09.

Q: What about the microsomal CLint [10] of the same compound?
A: The microsomal CLint was 44 µL/min/mg.

Q: Which EC50 [1] does the source give for `Cc1ccc(-c2ccc3c(c2)N(c2ccc(Cl)cc2)C[C@@H](C)c2nnc(C)n2-3)cn1` here?
A: The EC50 was 100 nM.

Q: What about the IC50 [2] of the same compound?
A: Its IC50 is 46 nM.

Q: What does the source list for `Cc1noc2c1-c1ccc(-c3ccc(N)nc3)cc1N(c1ccc(C#N)cc1)CC2C` (stereo not given)?
A: microsomal CLint [3]: 240 µL/min/mg; fraction unbound [4]: < 0.01; fraction unbound [5]: 0.01; fraction unbound [6]: 0.02; microsomal CLint [7]: 210 µL/min/mg; EC50 [1]: 78 nM; IC50 [2]: 36 nM; microsomal CLint [8]: 44 µL/min/mg; fraction unbound [9]: < 0.01; microsomal CLint [10]: 62 µL/min/mg

Q: What does the source list for `Cc1nnc2n1-c1ccc(-n3cncn3)cc1N(c1ccc(Cl)cc1)C[C@H]2C`?
A: EC50 [1]: 41 nM; IC50 [2]: 74 nM

Q: For `Cc1nnc2n1-c1ccc(-c3cnn(C)c3)cc1N(c1ccc(Cl)cc1)CC2`, which microsomal CLint [3] is on record?
A: The microsomal CLint was 91 µL/min/mg.

Q: And the fraction unbound [4]?
A: Its fraction unbound is 0.04.

Q: And the fraction unbound [5]?
A: The fraction unbound was 0.03.

Q: And the fraction unbound [6]?
A: The fraction unbound was 0.05.

Q: And the microsomal CLint [7]?
A: Its microsomal CLint is 154 µL/min/mg.

Q: What about the EC50 [1] of the same compound?
A: The EC50 was 130 nM.

Q: What about the IC50 [2] of the same compound?
A: The IC50 was 44 nM.

Q: What about the microsomal CLint [8] of the same compound?
A: The microsomal CLint was 77 µL/min/mg.

Q: And the fraction unbound [9]?
A: Its fraction unbound is 0.04.

Q: And the microsomal CLint [10]?
A: The microsomal CLint was 14 µL/min/mg.

Q: With `Cc1noc2c1-c1ccc(-c3cnn(C)c3)cc1N(c1ccc(C#N)cc1)CC2CC(N)=O` (stereo not given) as the compound, how does the microsomal CLint [3] read?
A: The microsomal CLint was 69 µL/min/mg.

Q: And the fraction unbound [4]?
A: The fraction unbound was 0.02.

Q: And the fraction unbound [5]?
A: The fraction unbound was 0.04.

Q: What about the fraction unbound [6] of the same compound?
A: Its fraction unbound is 0.06.

Q: What about the microsomal CLint [7] of the same compound?
A: The microsomal CLint was 22 µL/min/mg.

Q: What about the EC50 [1] of the same compound?
A: Its EC50 is 810 nM.

Q: What about the IC50 [2] of the same compound?
A: Its IC50 is 310 nM.

Q: And the microsomal CLint [8]?
A: The microsomal CLint was 37 µL/min/mg.

Q: And the fraction unbound [9]?
A: The fraction unbound was 0.01.

Q: What about the microsomal CLint [10] of the same compound?
A: Its microsomal CLint is 27 µL/min/mg.

Q: With `Cc1nnc2n1-c1ccc(-c3ccc(N)nc3)cc1N(c1ccc(Cl)cc1)C[C@@H]2C` as the compound, how does the EC50 [1] read?
A: Its EC50 is 790 nM.

Q: And the IC50 [2]?
A: The IC50 was 790 nM.

Q: Which results are given for `Cc1noc2c1-c1ccc(-c3cnn(CC(N)=O)c3)cc1N(c1ccc(C#N)cc1)CC2C` (stereo not given)?
A: microsomal CLint [3]: 22 µL/min/mg; fraction unbound [4]: 0.01; fraction unbound [5]: 0.04; fraction unbound [6]: 0.03; microsomal CLint [7]: 62 µL/min/mg; EC50 [1]: 67 nM; IC50 [2]: 31 nM; microsomal CLint [8]: 44 µL/min/mg; fraction unbound [9]: 0.01; microsomal CLint [10]: 33 µL/min/mg

Q: What does the source list for `Cc1nnc2n1-c1ccc(S(C)(=O)=O)cc1N(c1ccc(Cl)cc1)C[C@H]2C`?
A: EC50 [1]: 670 nM; IC50 [2]: 1200 nM

Q: What does the source list for `Cc1noc2c1-c1ccc(-c3ccc(=O)n(C)c3)cc1N(c1ccc(C#N)cc1)CC2C` (stereo not given)?
A: microsomal CLint [3]: 65 µL/min/mg; fraction unbound [4]: 0.02; fraction unbound [5]: 0.01; fraction unbound [6]: 0.03; microsomal CLint [7]: 71 µL/min/mg; EC50 [1]: 94 nM; IC50 [2]: 32 nM; microsomal CLint [8]: 64 µL/min/mg; fraction unbound [9]: 0.02; microsomal CLint [10]: 52 µL/min/mg

Q: With `Cc1nnc2n1-c1ccc(C(N)=O)cc1N(c1ccc(Cl)cc1)C[C@H]2C` as the compound, how does the EC50 [1] read?
A: The EC50 was 96 nM.

Q: And the IC50 [2]?
A: The IC50 was 65 nM.

Q: What does the source list for `Cc1nnc2n1-c1ccccc1N(c1ccc(Cl)cc1)CC2`?
A: microsomal CLint [3]: 390 µL/min/mg; fraction unbound [4]: 0.05; fraction unbound [5]: 0.07; fraction unbound [6]: 0.05; microsomal CLint [7]: 126 µL/min/mg; EC50 [1]: 2300 nM; IC50 [2]: 1560 nM; microsomal CLint [8]: 500 µL/min/mg; fraction unbound [9]: 0.05; microsomal CLint [10]: 154 µL/min/mg

Q: For `Cc1nnc2n1-c1ccccc1N(c1ccc(Cl)cc1)CC2C` (stereo not given), which microsomal CLint [3] is on record?
A: The microsomal CLint was 83 µL/min/mg.

Q: And the fraction unbound [4]?
A: Its fraction unbound is 0.05.

Q: What about the fraction unbound [5] of the same compound?
A: Its fraction unbound is 0.04.

Q: What about the fraction unbound [6] of the same compound?
A: The fraction unbound was 0.04.

Q: And the microsomal CLint [7]?
A: Its microsomal CLint is 25 µL/min/mg.

Q: What about the EC50 [1] of the same compound?
A: The EC50 was 290 nM.

Q: What about the IC50 [2] of the same compound?
A: The IC50 was 350 nM.

Q: What about the microsomal CLint [8] of the same compound?
A: The microsomal CLint was 110 µL/min/mg.

Q: What about the fraction unbound [9] of the same compound?
A: Its fraction unbound is 0.03.

Q: What about the microsomal CLint [10] of the same compound?
A: Its microsomal CLint is 24 µL/min/mg.

Q: For `Cc1nnc2n1-c1ccccc1N(c1ccc(Cl)cc1)C(C)C2` (stereo not given), which fraction unbound [6] is on record?
A: The fraction unbound was 0.03.

Q: What about the microsomal CLint [7] of the same compound?
A: Its microsomal CLint is 65 µL/min/mg.

Q: What about the EC50 [1] of the same compound?
A: The EC50 was 3100 nM.

Q: What about the IC50 [2] of the same compound?
A: The IC50 was 1200 nM.

Q: What about the fraction unbound [9] of the same compound?
A: The fraction unbound was 0.02.

Q: And the microsomal CLint [10]?
A: Its microsomal CLint is 25 µL/min/mg.

Q: What does the source list for `Cc1noc2c1-c1ccccc1N(c1ccc(C#N)cc1)CC2`?
A: microsomal CLint [3]: 18 µL/min/mg; fraction unbound [4]: < 0.01; fraction unbound [5]: < 0.01; fraction unbound [6]: < 0.01; microsomal CLint [7]: 24 µL/min/mg; EC50 [1]: 4600 nM; IC50 [2]: 550 nM; microsomal CLint [8]: 22 µL/min/mg; fraction unbound [9]: < 0.01; microsomal CLint [10]: 17 µL/min/mg

Q: For `Cc1noc2c1-c1ccc(-c3ccc(N)nc3)cc1N(c1ccc(C#N)cc1)CC2`, which microsomal CLint [3] is on record?
A: Its microsomal CLint is 165 µL/min/mg.

Q: What about the fraction unbound [4] of the same compound?
A: Its fraction unbound is under 0.01.

Q: What about the fraction unbound [5] of the same compound?
A: The fraction unbound was under 0.01.

Q: And the fraction unbound [6]?
A: The fraction unbound was 0.01.

Q: What about the microsomal CLint [7] of the same compound?
A: Its microsomal CLint is 195 µL/min/mg.

Q: And the EC50 [1]?
A: Its EC50 is 380 nM.

Q: What about the IC50 [2] of the same compound?
A: The IC50 was 64 nM.

Q: What about the microsomal CLint [8] of the same compound?
A: The microsomal CLint was 101 µL/min/mg.

Q: And the fraction unbound [9]?
A: The fraction unbound was under 0.01.

Q: And the microsomal CLint [10]?
A: The microsomal CLint was 86 µL/min/mg.

Q: With `Cc1nnc2n1-c1ccc(-c3ccc(N)nc3)cc1N(c1ccc(Cl)cc1)CC2C` (stereo not given) as the compound, how does the microsomal CLint [3] read?
A: The microsomal CLint was 94 µL/min/mg.

Q: And the fraction unbound [4]?
A: The fraction unbound was 0.03.

Q: What about the fraction unbound [5] of the same compound?
A: The fraction unbound was 0.02.

Q: And the fraction unbound [6]?
A: The fraction unbound was 0.03.

Q: And the microsomal CLint [7]?
A: Its microsomal CLint is 34 µL/min/mg.

Q: And the EC50 [1]?
A: Its EC50 is 16 nM.

Q: What about the IC50 [2] of the same compound?
A: Its IC50 is 26 nM.

Q: And the fraction unbound [9]?
A: The fraction unbound was 0.02.

Q: What about the microsomal CLint [10] of the same compound?
A: The microsomal CLint was 6.4 µL/min/mg.

Q: Which results are given for `Cc1ncnn1-c1ccc2c(c1)N(c1ccc(Cl)cc1)C[C@@H](C)c1nnc(C)n1-2`?
A: EC50 [1]: 450 nM; IC50 [2]: 280 nM
